Measured values taken from patent US8669257B2, “Phenazine derivatives and uses thereof as potassium channel modulators” (The Johns Hopkins University, priority 2007, dated 2014).

Tested on: calcium influx in Jurkat T-cells
Assay: Calcium imaging assay: store-depletion induced calcium influx in Jurkat T-cells
Assay type: cell-based, human
Conditions: thapsigargin then 2 mM Ca2+; clofazimine preincubated 5 min
Procedure: JurkaT-cells were attached to L-lysine-coated glass dishes (MatTek). Cells were loaded with fura-2-AM (Invitrogen_F-1201) for 45 min before they were washed sequentially with growth medium and Ca^2+-free HBSS. Fluorescence excitation wavelengths were set at 350 and 380 nm, respectively, on a Zeiss Axiovert 200M microscope while emission wavelength was set at 510 nm. Changes in intracellular calcium concentrations were determined by fluorescence intensity ratio ([…]/F380).

SMILES | effect on calcium entry
[Gd] [gadolinium] | abrogated calcium entry
Clc1ccc(COC(Cn2ccnc2)c2ccc(Cl)cc2Cl)cc1 (centres unmarked) [econazole] | abrogated calcium entry
